Data as given in patent US9328106B2, “Cyclic ether pyrazol-4-yl-heterocyclyl-carboxamide compounds and methods of use” (Genentech, Inc., priority 2012, dated 2016).

Each compound was assayed against PIM1 (Homo sapiens (Human), UniProt P11309) (assay: biochemical). Conditions: 20 pM PIM1, 1 μM FAM-peptide, 10 μM ATP, 90 minutes at room temperature; read-out: PIM1 LC3K (KI).
Type: biochemical

PIM1, sequence (P11309 whole entry): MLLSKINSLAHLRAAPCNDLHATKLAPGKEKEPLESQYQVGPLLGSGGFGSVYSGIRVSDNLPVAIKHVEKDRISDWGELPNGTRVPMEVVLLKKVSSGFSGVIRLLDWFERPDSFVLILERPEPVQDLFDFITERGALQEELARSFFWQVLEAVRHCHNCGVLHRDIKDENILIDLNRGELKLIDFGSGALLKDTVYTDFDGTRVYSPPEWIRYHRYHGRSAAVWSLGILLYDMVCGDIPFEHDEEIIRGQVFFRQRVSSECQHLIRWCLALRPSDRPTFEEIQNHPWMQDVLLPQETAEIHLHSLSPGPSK

| Structure (SMILES) | Ki [pM] |
| --- | --- |
| Cn1ncc(NC(=O)c2ccc(F)c(-c3c(F)cc(C4(O)CCC4)cc3F)n2)c1[C@@H]1CC[C@@H](N)[C@H](F)CO1 [Example 198, N-(5-((2S,5R,6S)-5-amino-6-fluorooxepan-2-yl)-1-methyl-1H-pyrazol-4-yl)-6-(2,6-difluoro-4-(1-hydroxycyclobutyl)phenyl)-5-fluoropicolinamide] | 21 |
| Cn1ncc(NC(=O)c2nc(-c3cccc(F)c3C(F)(F)F)sc2N)c1[C@@H]1CC[C@@H](N)[C@@H](F)CO1 [Example 267, 5-amino-N-(5-((2S,5R,6R)-5-amino-6-fluorooxepan-2-yl)-1-methyl-1H-pyrazol-4-yl)-2-(3-fluoro-2-(trifluoromethyl)phenyl)thiazole-4-carboxamide] | 98 |
| Cn1ncc(NC(=O)c2csc(-c3cnn(C)c3C(F)(F)F)n2)c1[C@@H]1CC[C@@H](N)[C@@H](F)CO1 [Example 283, N-(5-((2S,5R,6R)-5-amino-6-fluorooxepan-2-yl)-1-methyl-1H-pyrazol-4-yl)-2-(1-methyl-5-(trifluoromethyl)-1H-pyrazol-4-yl)thiazole-4-carboxamide] | 171 |
| C[C@@H]1CC(N)CC[C@H](c2c(NC(=O)c3nc(-c4c(F)cccc4F)sc3N)cnn2C)O1 (stereo partly drawn) [Example 113, 5-amino-N-(5-((2R,7R)-5-amino-7-methyloxepan-2-yl)-1-methyl-1H-pyrazol-4-yl)-2-(2,6-difluorophenyl)thiazole-4-carboxamide] | 19 |
| Cn1ncc(NC(=O)c2nc(-c3c(F)cccc3F)sc2N)c1C1CC(F)(F)CC(N)CO1 (single isomer, unassigned) [Example 114, 5-amino-N-[5-(6-amino-4,4-difluoro-oxepan-2-yl)-1-methyl-pyrazol-4-yl]-2-(2,6-difluorophenyl)thiazole-4-carboxamide] | 32 |
| Cn1ncc(NC(=O)c2nc(-c3c(F)cccc3F)sc2N)c1[C@@H]1CC[C@@H](CN)O1 [Example 172, 5-Amino-N-[5-[(2S,5S)-5-(aminomethyl)tetrahydrofuran-2-yl]-1-methyl-pyrazol-4-yl]-2-(2,6-difluorophenyl)thiazole-4-carboxamide] | 150 |
| Cc1cccc(F)c1-c1nc(C(=O)Nc2cnn(C)c2[C@@H]2CC[C@@H](N)[C@@H](F)CO2)c(N)s1 [Example 273, 5-amino-N-(5-((2S,5R,6R)-5-amino-6-fluorooxepan-2-yl)-1-methyl-1H-pyrazol-4-yl)-2-(2-fluoro-6-methylphenyl)thiazole-4-carboxamide] | 7 |
| Cn1ncc(NC(=O)c2ccc(F)c(-c3c(F)cc(C4(O)CC4)cc3F)n2)c1[C@@H]1CC[C@@H](N)[C@H](F)CO1 [Example 204, N-(5-((2S,5R,6S)-5-amino-6-fluorooxepan-2-yl)-1-methyl-1H-pyrazol-4-yl)-6-(2,6-difluoro-4-(1-hydroxycyclopropyl)phenyl)-5-fluoropicolinamide] | 1 |
| Cn1ncc(NC(=O)c2csc(-c3cncc(F)c3)n2)c1[C@@H]1CC[C@@H](N)[C@H](F)CO1 [Example 239, N-(5-((2S,5R,6S)-5-amino-6-fluorooxepan-2-yl)-1-methyl-1H-pyrazol-4-yl)-2-(5-fluoropyridin-3-yl)thiazole-4-carboxamide] | 2660 |
| Cn1ncc(NC(=O)c2csc(-c3c(F)cccc3F)n2)c1[C@H]1CC[C@H](N)[C@@H](O)CO1 [Example 353, N-(5-((2R,5S,6R)-5-amino-6-hydroxyoxepan-2-yl)-1-methyl-1H-pyrazol-4-yl)-2-(2,6-difluorophenyl)thiazole-4-carboxamide] | 111 |
| Cn1ncc(NC(=O)c2csc(-c3cc(Br)ccc3F)n2)c1[C@@H]1CC[C@@H](N)[C@H](F)CO1 [Example 299, N-(5-((2S,5R,6S)-5-amino-6-fluorooxepan-2-yl)-1-methyl-1H-pyrazol-4-yl)-2-(5-bromo-2-fluorophenyl)thiazole-4-carboxamide] | 23 |
| Cn1ncc(NC(=O)c2nc(-c3cc(F)cc(F)c3F)sc2N)c1[C@@H]1CC[C@@H](N)[C@@H](F)CO1 [Example 261, 5-amino-N-(5-((2S,5R,6R)-5-amino-6-fluorooxepan-2-yl)-1-methyl-1H-pyrazol-4-yl)-2-(2,3,5-trifluorophenyl)thiazole-4-carboxamide] | 37 |
| Cn1ncc(NC(=O)c2csc(-c3cc(Cl)ccc3F)n2)c1[C@@H]1CC[C@@H](N)[C@H](F)CO1 [Example 302, N-(5-((2S,5R,6S)-5-amino-6-fluorooxepan-2-yl)-1-methyl-1H-pyrazol-4-yl)-2-(5-chloro-2-fluorophenyl)thiazole-4-carboxamide] | 31 |
| Cc1ccc(F)c(-c2nc(C(=O)Nc3cnn(C)c3[C@@H]3CC[C@@H](N)[C@H](F)CO3)cs2)c1 [Example 238, N-(5-((2S,5R,6S)-5-amino-6-fluorooxepan-2-yl)-1-methyl-1H-pyrazol-4-yl)-2-(2-fluoro-5-methylphenyl)thiazole-4-carboxamide] | 48 |
| Cn1ncc(NC(=O)c2csc(-c3cccc4c3cnn4C)n2)c1[C@@H]1CC[C@@H](N)[C@H](F)CO1 [Example 402, N-[5-[(2S,5R,6S)-5-amino-6-fluoro-oxepan-2-yl]-1-methyl-pyrazol-4-yl]-2-(1-methylindazol-4-yl)thiazole-4-carboxamide] | 117 |
| Cn1ncc(NC(=O)c2nc(-c3c(F)cccc3F)sc2N)c1C1=CCOCC1 [Example 101, 5-amino-2-(2,6-difluorophenyl)-N-[5-(3,6-dihydro-2H-pyran-4-yl)-1-methyl-pyrazol-4-yl]thiazole-4-carboxamide] | 485 |
| Cn1ncc(NC(=O)c2nc(-c3cccc(F)c3C(F)(F)F)sc2N)c1[C@@H]1CC[C@@H](N)[C@H](F)CO1 [Example 336, 5-amino-N-(5-((2S,5R,6S)-5-amino-6-fluorooxepan-2-yl)-1-methyl-1H-pyrazol-4-yl)-2-(3-fluoro-2-(trifluoromethyl)phenyl)thiazole-4-carboxamide] | 188 |
| CO[C@H]1CO[C@H](c2c(NC(=O)c3nc(-c4ccccc4C(F)(F)F)sc3N)cnn2C)CC[C@H]1N [Example 220, 5-amino-N-(5-((2S,5R,6R)-5-amino-6-methoxyoxepan-2-yl)-1-methyl-1H-pyrazol-4-yl)-2-(2-(trifluoromethyl)phenyl)thiazole-4-carboxamide] | 83 |
| COc1cc(F)c(-c2nc(C(=O)Nc3cnn(C)c3[C@@H]3CC[C@@H](N)[C@@H](OC)CO3)cs2)c(F)c1 [Example 265, N-(5-((2S,5R,6R)-5-amino-6-methoxyoxepan-2-yl)-1-methyl-1H-pyrazol-4-yl)-2-(2,6-difluoro-4-methoxyphenyl)thiazole-4-carboxamide] | 34 |
| Cn1ncc(NC(=O)c2nc(-c3c(F)cccc3F)sc2N)c1C1OCC(CO)CO1 (centres unmarked) [Example 165, 5-Amino-2-(2,6-difluorophenyl)-N-[5-[5-(hydroxymethyl)-1,3-dioxan-2-yl]-1-methyl-pyrazol-4-yl]thiazole-4-carboxamide] | 647 |
| CO[C@H]1CO[C@H](c2c(NC(=O)c3nc(-c4c(F)cccc4C(F)(F)F)sc3N)cnn2C)CC[C@H]1N [Example 279, 5-amino-N-(5-((2S,5R,6R)-5-amino-6-methoxyoxepan-2-yl)-1-methyl-1H-pyrazol-4-yl)-2-(2-fluoro-6-(trifluoromethyl)phenyl)thiazole-4-carboxamide] | 83 |
| Cc1c(-c2nc(C(=O)Nc3cnn(C)c3[C@@H]3CC[C@@H](N)[C@H](F)CO3)c(N)s2)cnn1C [Example 257, 5-amino-N-(5-((2S,5R,6S)-5-amino-6-fluorooxepan-2-yl)-1-methyl-1H-pyrazol-4-yl)-2-(1,5-dimethyl-1H-pyrazol-4-yl)thiazole-4-carboxamide] | 25 |
| COC1(c2cc(F)c(-c3nc(C(=O)Nc4cnn(C)c4[C@@H]4CC[C@@H](N)[C@@H](F)CO4)ccc3F)c(F)c2)COC1 [Example 203, N-(5-((2S,5R,6R)-5-amino-6-fluorooxepan-2-yl)-1-methyl-1H-pyrazol-4-yl)-6-(2,6-difluoro-4-(3-methoxyoxetan-3-yl)phenyl)-5-fluoropicolinamide] | 119 |
| Cc1c(-c2nc(C(=O)Nc3cnn(C)c3[C@@H]3CC[C@@H](N)[C@H](F)CO3)cs2)cnn1C [Example 242, N-(5-((2S,5R,6S)-5-amino-6-fluorooxepan-2-yl)-1-methyl-1H-pyrazol-4-yl)-2-(1,5-dimethyl-1H-pyrazol-4-yl)thiazole-4-carboxamide] | 218 |
| Cn1ncc(NC(=O)c2csc(-c3cc(F)ccc3F)n2)c1[C@@H]1CC[C@@H](N)[C@H](F)CO1 [Example 301, N-(5-((2S,5R,6S)-5-amino-6-fluorooxepan-2-yl)-1-methyl-1H-pyrazol-4-yl)-2-(2,5-difluorophenyl)thiazole-4-carboxamide] | 58 |
| Cn1ncc(NC(=O)c2ccc(F)c(-c3c(F)cc(C4(O)COC4)cc3F)n2)c1[C@@H]1CC[C@@H](N)[C@H](F)CO1 [Example 193, N-(5-((2S,5R,6S)-5-amino-6-fluorooxepan-2-yl)-1-methyl-1H-pyrazol-4-yl)-6-(2,6-difluoro-4-(3-hydroxyoxetan-3-yl)phenyl)-5-fluoropicolinamide] | 34 |
| CO[C@H]1CO[C@H](c2c(NC(=O)c3nc(-c4cc(F)cc(F)c4F)sc3N)cnn2C)CC[C@H]1N [Example 263, 5-amino-N-(5-((2S,5R,6R)-5-amino-6-methoxyoxepan-2-yl)-1-methyl-1H-pyrazol-4-yl)-2-(2,3,5-trifluorophenyl)thiazole-4-carboxamide] | 127 |
| Cn1ncc(NC(=O)c2csc(-c3c(F)cc(C4(O)CC4)cc3F)n2)c1[C@@H]1CC[C@@H](N)[C@H](F)CO1 [Example 225, N-(5-((2S,5R,6S)-5-amino-6-fluorooxepan-2-yl)-1-methyl-1H-pyrazol-4-yl)-2-(2,6-difluoro-4-(1-hydroxycyclopropyl)phenyl)thiazole-4-carboxamide] | 28 |
| Cn1ncc(NC(=O)c2csc(-n3ncc4c3CCCC4)n2)c1[C@@H]1CC[C@@H](N)[C@H](F)CO1 [Example 389, N-(5-((2S,5R,6S)-5-amino-6-fluorooxepan-2-yl)-1-methyl-1H-pyrazol-4-yl)-2-(4,5,6,7-tetrahydro-1H-indazol-1-yl)thiazole-4-carboxamide] | 20 |
